pEC50, pIC50: −log10 of the molar value.
Target: T1, N-formyl peptide receptor 2 (Homo sapiens, UniProt P25090)
T1 sequence (P25090 whole entry): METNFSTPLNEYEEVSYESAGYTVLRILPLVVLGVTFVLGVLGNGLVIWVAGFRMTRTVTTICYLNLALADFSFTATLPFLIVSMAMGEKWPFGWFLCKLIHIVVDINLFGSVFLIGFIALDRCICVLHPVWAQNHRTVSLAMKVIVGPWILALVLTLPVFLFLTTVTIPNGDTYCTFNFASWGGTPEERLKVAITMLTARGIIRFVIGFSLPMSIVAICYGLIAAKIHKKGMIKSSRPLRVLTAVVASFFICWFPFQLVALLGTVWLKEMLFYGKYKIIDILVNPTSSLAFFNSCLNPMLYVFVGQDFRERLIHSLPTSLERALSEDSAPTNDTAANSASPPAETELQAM
Assay: Allosteric antagonist activity against FPR2 (unknown origin)

pIC50	Compound
7.30	CCCCCCCCCCCCCCCC(=O)N[C@@H](CCCCN)C(=O)N(CCC(=O)N[C@@H](CCCCN)C(=O)N(CCC(=O)N[C@@H](CCCCN)C(=O)N(CCC(=O)N[C@@H](CCCCN)C(=O)N(CCC(=O)N[C@@H](CCCCN)C(=O)N(CCC(=O)N[C@@H](CCCCN)C(=O)N(CCC(N)=O)[C@@H](C)c1ccccc1)[C@@H](C)c1ccccc1)[C@@H](C)c1ccccc1)[C@@H](C)c1ccccc1)[C@@H](C)c1ccccc1)[C@@H](C)c1ccccc1

Target: T1, N-formyl peptide receptor 2
Assay: Antagonist activity against FPR2 (unknown origin) pre-treated for 5 mins before addition of Wpep by Fluo4 florescence based intracellular Ca2+ mobilization assay
Assay type: functional, cell-based

pIC50	Compound
7.10	CC(C)[C@H]1CNC(=O)C(=O)N1C[C@@H]1CCCN1C[C@@H](Cc1ccc2ccccc2c1)N1C[C@@H](Cc2ccc(O)cc2)N(CC2CCCCC2)C(=O)C1=O

Target: T1, N-formyl peptide receptor 2
Assay: Agonist activity at human FPR2 expressed in rat RBL-2H3 cells by intracellular Ca2+ mobilization assay
Assay type: functional, cell-based

pEC50	Compound
5.83	CCCCOc1ccc(C(=O)NN2Cc3ccccc3NC2c2ccc(C)cc2)cc1 (stereo not drawn)
6.33	CCCCOc1ccc(C(=O)NN2Cc3ccccc3NC2c2ccc(OC)cc2)cc1 (stereo not drawn)

Target: T1, N-formyl peptide receptor 2
Assay: Agonist activity at FPR2 (unknown origin) by Fluo4 florescence based intracellular Ca2+ mobilization assay
Assay type: functional, cell-based

pEC50	Compound
6.85	CCC[C@H]1CNC(=O)C(=O)N1C[C@@H]1CCCN1C[C@@H](Cc1ccc2ccccc2c1)N1C[C@@H](Cc2ccc(O)cc2)N(CC2CCCCC2)C(=O)C1=O

Target: T1, N-formyl peptide receptor 2
Assay: Agonist activity against human FPR2 expressed in human HL60 cells by Fluo-4AM dye based intracellular Ca2+ mobilization assay
Assay type: functional, cell-based, HL-60

Compound	pEC50
COc1ccc(CCNC(=O)Nc2ccccc2)cc1	5.52
COc1ccc2[nH]c(SCC(=O)Nc3ccc(OC)c(OC)c3)nc2c1	5.33
COc1ccc2[nH]c(SCC(=O)Nc3ccccc3Br)nc2c1	5.39
COc1ccc2[nH]c(SCC(=O)Nc3ccc(C(C)=O)cc3)nc2c1	5.22
CCc1ccc(NC(=O)CSc2nc3cc(OC)ccc3[nH]2)cc1	5.49
COC(=O)Nc1cccc(NC(=O)CSc2nc3cc(OC)ccc3[nH]2)c1	5.14
CCOc1ccc2[nH]c(SCC(=O)Nc3ccccc3SC)nc2c1	5.10
COc1ccc2[nH]c(SCC(=O)Nc3ccccc3Cl)nc2c1	5.00

Other lines, results leading:

pEC50	Compound
6.40	COc1ccc(CCNC(=O)Nc2ccc(Cl)cc2)cc1
6.05	COc1ccc(CCNC(=O)Nc2ccc(F)cc2)cc1
7.00	COc1ccc(CCNC(=O)Nc2ccc(Br)cc2)cc1
6.89	CCOC(=O)C1CCN(C(=O)[C@H](Cc2c[nH]c3ccccc23)NC(=O)Nc2ccc(Br)cc2)CC1
6.85	O=C(Nc1ccc(Br)cc1)N[C@@H](Cc1ccccc1)C(=O)N1CCCC1
7.40	O=C(Nc1ccc(Br)cc1)N[C@@H](Cc1ccccc1)C(=O)N1CCCCC1
7.30	O=C(Nc1ccc(Cl)cc1)N[C@@H](Cc1ccccc1)C(=O)N1CCCCC1
6.52	CSc1ccc(NC(=O)N[C@@H](Cc2ccccc2)C(=O)N2CCCCC2)cc1
8.40	O=C(Nc1ccc(Br)cc1)N[C@@H](Cc1ccccc1)C(=O)NN1CCCCNC1=O
8.15	CCOC(=O)C1CCCN(C(=O)[C@H](Cc2ccccc2)NC(=O)Nc2ccc(Br)cc2)C1 (stereo partly drawn)
6.80	CCOC(=O)C1CCN(C(=O)[C@H](Cc2ccccc2)NC(=O)Nc2ccc(Br)cc2)CC1
6.60	O=C(Nc1ccc(Br)cc1)N[C@@H](Cc1ccccc1)C(=O)N1CCc2ccccc21

Target: T1, N-formyl peptide receptor 2
Assay: Antagonist activity against human FPR2 expressed in rat RBL-2H3 cells pre-treated for 15 mins before addition of WKYMVm or C1 by intracellular Ca2+ mobilization assay
Assay type: functional, cell-based

pIC50	Compound
5.18	CCCCOc1ccc(C(=O)NN2Cc3ccccc3NC2c2ccc(O)cc2)cc1 (stereo not drawn)
6.77	CCCCOc1ccc(C(=O)NN2Cc3ccccc3NC2c2ccc(C)cc2)cc1 (stereo not drawn)
7.05	CCCCOc1ccc(C(=O)NN2Cc3ccccc3NC2c2ccc(OC)cc2)cc1 (stereo not drawn)
